This note sets out measurements from patent US20120190666A1, “Heteroaryl Compounds as PIKK Inhibitors” (Amgen Inc., priority 2009, published 2012).

Broadly, the IC50 is the point on the concentration scale where inhibition reaches its midpoint.

The target in one assay is mTOR (Homo sapiens, UniProt P42345). Nature of the assay: mTOR LanthaScreen (TR-FRET, phosphorylation of 4EBP1). Type of assay: biochemical. The conditions noted are these: phosphorylation of GFP-4E-BP1, 10 μM ATP, 90 minutes. The procedure:
The mTOR LanthaScreen is a TR-FRET assay measuring the phosphorylation of mTOR's substrate 4EBP1. 384 well compound plates were prepared containing 1 μl of compound per well starting at 5 mM and diluted 1:2 across the row, resulting in a 22 well serial dilution. 24 μl of assay buffer (Invitrogen, PV4794) with 2 mM DTT was added to the compound plate in rows 1-24 using the VELOCITY 11™ VPREP™ 384 ST resulting in a DMSO concentration of 4%. The compound plate was mixed and 2.5 μl of serially diluted compound or controls was added to the assay plate (Costar, 3658).
The assay was conducted on the PerkinElmer® FlexDrop PLUS. A 5 μl mix of 800 nM GFP-4E-BP1 (Invitrogen, PV4759) and 20 μM ATP (Amgen) was added to rows 1-24. 2.5 μl of 0.6 μg/ml of mTOR Enzyme (Amgen) was added to rows 1-23. 2.5 μl of assay buffer was added to row 24 for the low control. The final concentration of the compounds was 50 μM serially diluted to 23.84 pM in 1% DMSO. […] The final concentrations in the assay reagents were 400 nM GFP-4E-BP1, 10 μM of ATP and 0.15 μg/ml of mTOR enzyme. The compound, enzyme, and substrate were incubated for 90 minutes. At this point, 10 μl of stop solution was added (20 mM Tris, pH 7.5 (Invitrogen, 15567-027), 0.02% Sodium Azide (Teknova, S0208), 0.01% NP-40 (Roche, 11754599001), 20 mM EDTA (Invitrogen, 15575-038) and 4 nM of Tb-anti-p4E-BP1 (Invitrogen, PV4758)) for a final concentration of 2 nM of Tb-anti-p4E-BP1.
Sixty minutes later the plates were read on the PerkinElmer® EnVision™ 2103 Multilable Reader using the Excitation filter 340 nm and the Emission filters 520 nm and 495 nm.
In general terms: Time-resolved FRET reads energy transfer from a long-lived donor to a nearby acceptor.

The test system of assay [1] is phosphorylation of Akt at Serine 473 in U87 MG cells. Nature of the assay: pAkt AlphaScreen (U87 cell). Type of assay: cell-based. Conditions: Homo sapiens, U-87 MG, 2 h; pAkt at Serine 473, U87 MG cells, two hours with compound. The essentials: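 U87 MG cells (5K per well, plated overnight) treated 2 h at 37 °C with compound, 25 μM to 11.9 pM final in 0.5% DMSO. Lysates assayed for Akt Ser473 phosphorylation with SureFire AlphaScreen, incubated overnight at room temperature; IC50 from percent of control.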
In general terms: Bead proximity is the source of the signal in Alpha formats.

As for `CC(=O)Nc1cc(-c2c(Nc3ccn(C)n3)nc3c(F)cccn23)nc(C)n1` [Cpd 63, N-(6-(8-fluoro-2-((1-methyl-1H-pyrazol-3-yl)amino)imidazo[1,2-a]pyridin-3-yl)-2-methyl-4-pyrimidinyl)acetamide], the IC50 on mTOR worked out at 60 nM; in assay [1] it was 50 nM.

As to `Cc1nc(N)cc(-c2c(Nc3ccn(C)n3)nc3ccc(-c4cccc(S(C)(=O)=O)c4)cn23)n1` [Cpd 65, 3-(6-amino-2-methyl-4-pyrimidinyl)-N-(1-methyl-1H-pyrazol-3-yl)-6-(3-(methylsulfonyl)phenyl)imidazo[1,2-a]pyridin-2-amine], the IC50 at mTOR turned out to be 340 nM; in assay [1] it was 380 nM.

Consider `CC(=O)n1ccc(Nc2nc3cccnn3c2-c2cc(N)nc(C)n2)n1` [Cpd 67, N-(1-acetyl-1H-pyrazol-3-yl)-3-(6-amino-2-methyl-4-pyrimidinyl)imidazo[1,2-b]pyridazin-2-amine], for which the IC50 (at mTOR; in assay [1]) was 10 nM each time.

Take `COCCOc1ccc2nc(Nc3cc[nH]n3)c(-c3cc(N)nc(C)n3)n2n1` [Cpd 69, 3-(6-amino-2-methyl-4-pyrimidinyl)-6-(2-methoxyethoxy)-N-1H-pyrazol-3-ylimidazo[1,2-b]pyridazin-2-amine]: the values for the IC50 (against mTOR; in assay [1]) were 4 nM and 1 nM, respectively.

`CNc1cc(-c2c(Nc3cc[nH]n3)nc3ccc(N4CCOCC4)nn23)nc(C)n1` [Cpd 72, 3-(2-methyl-6-(methylamino)-4-pyrimidinyl)-6-(4-morpholinyl)-N-1H-pyrazol-3-ylimidazo[1,2-b]pyridazin-2-amine]: the half-maximal inhibitory concentration (IC50) at mTOR was found to be 40 nM; in assay [1] it was 3 nM.

Turning to `Cc1nc(N)cc(-c2c(Nc3cc[nH]n3)nc3ccc(OCCN4CCCC4)nn23)n1` [Cpd 73], the half-maximal inhibitory concentration (IC50) amounted to 50 nM against mTOR and 70 nM in assay [1].

Consider `Cc1nc(NC(=O)N(C)C)cc(-c2c(Nc3cc[nH]n3)nc3cccnn23)n1` [Cpd 75, 1,1-dimethyl-3-(2-methyl-6-(2-(1H-pyrazol-3-ylamino)imidazo[1,2-b]pyridazin-3-yl)-4-pyrimidinyl)urea], for which the results for the IC50 (against mTOR; in assay [1]) were 1420 nM and 790 nM, respectively.

Take `Cc1nc(NC(=O)N2CCN(C)CC2)cc(-c2c(Nc3cc[nH]n3)nc3cccnn23)n1` [Cpd 77, 4-methyl-N-(2-methyl-6-(2-(1H-pyrazol-3-ylamino)imidazo[1,2-b]pyridazin-3-yl)-4-pyrimidinyl)-1-piperazinecarboxamide]: the IC50 on mTOR turned out to be 2720 nM; in assay [1], 1640 nM.

As for `Cc1nc(NCC#N)cc(-c2c(Nc3cc[nH]n3)nc3cccnn23)n1` [Cpd 90], the IC50 is 30 nM on mTOR and 20 nM in assay [1].

For the compound `Cc1nc(NC(=O)CN(C)C)cc(-c2c(Nc3ccn(C)n3)nc3cccnn23)n1` [Cpd 92], the IC50 turned out to be 780 nM on mTOR and 180 nM in assay [1].

On to `Cc1nc(N)nc(-c2c(Nc3cc[nH]n3)nc3ccc(C4=CCN(C(=O)OC(C)(C)C)CC4)cn23)n1` [Cpd 97, tert-butyl 4-(3-(4-amino-6-methyl-1,3,5-triazin-2-yl)-2-(1H-pyrazol-3-ylamino)imidazo[1,2-a]pyridin-6-yl)-3,6-dihydro-1(2H)-pyridinecarboxylate], for which the IC50 turned out to be 16 nM against mTOR and 30 nM in assay [1].

Consider `CNC(=O)c1ccc(-c2ccc3nc(Nc4cc[nH]n4)c(-c4nc(C)nc(N)n4)n3c2)cc1F` [Cpd 99, 4-(3-(4-amino-6-methyl-1,3,5-triazin-2-yl)-2-(1H-pyrazol-3-ylamino)imidazo[1,2-a]pyridin-6-yl)-2-fluoro-N-methylbenzamide], for which the IC50 was determined as 4 nM at mTOR and 10 nM in assay [1].

For `CC(=O)NCc1ccc(-c2ccc3nc(Nc4cc[nH]n4)c(-c4nc(C)nc(N)n4)n3c2)cc1` [Cpd 100, N-(4-(3-(4-amino-6-methyl-1,3,5-triazin-2-yl)-2-(1H-pyrazol-3-ylamino)imidazo[1,2-a]pyridin-6-yl)benzyl)acetamide], the IC50 came to 1 nM against mTOR and 10 nM in assay [1].

As to `Cc1nc(N)nc(-c2c(Nc3cc[nH]n3)nc3ccc(-c4ccoc4)cn23)n1` [Cpd 105, 3-(4-amino-6-methyl-1,3,5-triazin-2-yl)-6-(3-furanyl)-N-1H-pyrazol-3-ylimidazo[1,2-a]pyridin-2-amine], the IC50 on mTOR came out at 14 nM; in assay [1], 50 nM.

Consider `Cc1nc(N)nc(-c2c(Nc3cc[nH]n3)nc3ccc(-c4ccc(F)cc4C)cn23)n1` [Cpd 107, 3-(4-amino-6-methyl-1,3,5-triazin-2-yl)-6-(4-fluoro-2-methylphenyl)-N-1H-pyrazol-3-ylimidazo[1,2-a]pyridin-2-amine], for which the IC50 against mTOR amounted to 40 nM; in assay [1], 130 nM.

Consider `CSc1cccc(-c2ccc3nc(Nc4cc[nH]n4)c(-c4nc(C)nc(N)n4)n3c2)c1` [Cpd 109, 3-(4-amino-6-methyl-1,3,5-triazin-2-yl)-6-(3-(methylsulfanyl)phenyl)-N-1H-pyrazol-3-ylimidazo[1,2-a]pyridin-2-amine], for which the IC50 against mTOR came to 50 nM; in assay [1], 220 nM.

Turning to `CC(=O)Nc1cccc(-c2ccc3nc(Nc4cc[nH]n4)c(-c4nc(C)nc(N)n4)n3c2)c1` [Cpd 114, N-(3-(3-(4-amino-6-methyl-1,3,5-triazin-2-yl)-2-(1H-pyrazol-3-ylamino)imidazo[1,2-a]pyridin-6-yl)phenyl)acetamide], the figures for the IC50 (against mTOR; in assay [1]) were 10 nM and 30 nM, respectively.

`Cc1nc(N)nc(-c2c(Nc3cc[nH]n3)nc3ccc(-c4cccc(NC(=O)C5CC5)c4)cn23)n1` [Cpd 115, N-(3-(3-(4-amino-6-methyl-1,3,5-triazin-2-yl)-2-(1H-pyrazol-3-ylamino)imidazo[1,2-a]pyridin-6-yl)phenyl)cyclopropanecarboxamide]: the IC50 against mTOR turned out to be 3 nM; in assay [1] it was 40 nM.

Consider `Cc1nc(NC(=O)C2CC2)cc(-c2c(Nc3cc[nH]n3)nc3cccnn23)n1` [Cpd 120], for which the IC50 came out at 290 nM on mTOR and 110 nM in assay [1].

As for `COCC(=O)Nc1cc(-c2c(Nc3ccn(C)n3)nc3cccnn23)nc(C)n1` [Cpd 123, 2-methoxy-N-(2-methyl-6-(2-((1-methyl-1H-pyrazol-3-yl)amino)imidazo[1,2-b]pyridazin-3-yl)-4-pyrimidinyl)acetamide], the half-maximal inhibitory concentration (IC50) against mTOR was 140 nM; in assay [1], 150 nM.

With `Cc1nc(NC(=O)CC#N)cc(-c2c(Nc3ccn(C)n3)nc3ccccn23)n1` [Cpd 126, 2-cyano-N-(2-methyl-6-(2-((1-methyl-1H-pyrazol-3-yl)amino)imidazo[1,2-a]pyridin-3-yl)-4-pyrimidinyl)acetamide], the IC50 against mTOR is 690 nM; in assay [1], 220 nM.

For `Cc1nc(NC(=O)CC(F)(F)F)cc(-c2c(Nc3ccn(C)n3)nc3cccnn23)n1` [Cpd 134, 3,3,3-trifluoro-N-(2-methyl-6-(2-((1-methyl-1H-pyrazol-3-yl)amino)imidazo[1,2-b]pyridazin-3-yl)-4-pyrimidinyl)propanamide], the IC50 at mTOR worked out at 820 nM; in assay [1], 210 nM.

For the compound `Cc1nc(Nc2ccc(N3CCOC(C)C3)nn2)cc(-c2c(Nc3cc[nH]n3)nc3cccnn23)n1` (stereo not drawn) [Cpd 140, 3-(2-methyl-6-((6-(2-methyl-4-morpholinyl)-3-pyridazinyl)amino)-4-pyrimidinyl)-N-1H-pyrazol-3-ylimidazo[1,2-b]pyridazin-2-amine], the figures for the IC50 (against mTOR; in assay [1]) were 110 nM and 90 nM, respectively.

On to `Cc1nc(N)cc(-c2c(Nc3cccc(N4CCN(C)CC4)c3)nc3cccnn23)n1` [Cpd 151, 3-(6-amino-2-methyl-4-pyrimidinyl)-N-(3-(4-methyl-1-piperazinyl)-phenyl)imidazo[1,2-b]pyridazin-2-amine], for which the IC50 at mTOR turned out to be 430 nM; in assay [1] it was 5380 nM.

Consider `Cc1nc(N)nc(-c2c(Nc3cc[nH]n3)nc3ccc(Nc4ccncc4)cn23)n1` [Cpd 166], for which the IC50 worked out at 25 nM against mTOR and 450 nM in assay [1].

Take `Cc1nc(N)nc(-c2c(Nc3cc[nH]n3)nc3ccc(-c4ccc5c(c4)CCNC5=O)cn23)n1` [Cpd 175, 6-(3-(4-amino-6-methyl-1,3,5-triazin-2-yl)-2-(1H-pyrazol-3-ylamino)imidazo[1,2-a]pyridin-6-yl)-3,4-dihydro-1(2H)-isoquinolinone]: the concentration for half-maximal inhibition (IC50) turned out to be 2 nM against mTOR and 30 nM in assay [1].

With `Cc1nc(N)nc(-c2c(Nc3cc[nH]n3)nc3ccc(-c4ccc(C(=O)O)cc4C)cn23)n1` [Cpd 177, 4-(3-(4-amino-6-methyl-1,3,5-triazin-2-yl)-2-(1H-pyrazol-3-ylamino)imidazo[1,2-a]pyridin-6-yl)-3-methylbenzoic acid], the IC50 against mTOR is 1 nM; in assay [1], 170 nM.
